Source: patent US4415584A, “3-Oxo-6-oxa-2-azatricyclo 5.4.2. unadecene-4-carboxylate” (Beecham Group Limited, priority 1978, dated 1983)

What was measured:
Staph. aureus Russell [1] = assay: Antibacterial Synergy (Example 4), MIC for ampicillin; format: cell-based; conditions: ampicillin alone, no inhibitor
Kleb. aerogenes E70 [2] = assay: as above; format: cell-based, Klebsiella aerogenes; conditions: ampicillin alone, no inhibitor
P. mirabilis C889 [3] = assay: as above; format: cell-based, Proteus mirabilis; conditions: ampicillin alone, no inhibitor
E. coli JT39 [4] = assay: as above; format: cell-based; conditions: ampicillin alone, no inhibitor
E. coli JT39 [5] = assay: Antibacterial Synergy (Example 13), MIC; format: cell-based
Method: (§1) The MIC's of ampicillin, the product of Example 10 (synergist) and ampicillin in the presence of the product of Example 10 were determined for a range of bacteria.

Klebsiella aerogenes E70 = assay: Antibacterial Synergy (Example 13), MIC; format: cell-based
Method: as §1

Proteus mirabilis C889 = assay: Antibacterial Synergy (Example 13), MIC; format: cell-based
Method: as §1

Staph. aureus Russell [6] = assay: Antibacterial Synergy (Example 13), MIC; format: cell-based
Method: as §1

E. coli E96 (RTEM) = format: in vivo, mice infected with E. coli; conditions: amoxycillin alone; printed × 2 (dosed at 1 and 5 hours after infection); mice
Method: Groups of mice were infected intraperitoneally with E. coli E96 (RTEM), and were then dosed at 1 and 5 hours after infection with amoxycillin or amoxycillin and the compound of Example 3.

Staph. aureus Russell [7] = assay: Antibacterial Activity (Example 4), M.I.C.; format: cell-based; conditions: compound alone
Kleb. aerogenes E70 [8] = assay: Antibacterial Activity (Example 4), M.I.C.; format: cell-based, Klebsiella aerogenes; conditions: compound alone
P. mirabilis C889 [9] = assay: Antibacterial Activity (Example 4), M.I.C.; format: cell-based, Proteus mirabilis; conditions: compound alone
mice = assay: Toxicity, intraperitoneal administration to mice; format: in vivo; conditions: dosages up to 750 mg/kg
Method: The compound of Example 1 (Isomer II) was administered intraperitoneally to mice.

E. coli JT39 [10] = assay: Antibacterial Activity (Example 4), M.I.C.; format: cell-based; conditions: compound alone
[11] = ampicillin + synergist at 20 μg/ml

CC1(C)S[C@@H]2[C@H](NC(=O)[C@H](N)c3ccccc3)C(=O)N2[C@H]1C(=O)O [ampicillin, reference compound]
MIC for ampicillin (Staph. aureus Russell [1]): > 500 µg/mL | MIC for ampicillin (Kleb. aerogenes E70 [2]): 2000 µg/mL | MIC for ampicillin (P. mirabilis C889 [3]): 2000 µg/mL | MIC for ampicillin (E. coli JT39 [4]): 500 µg/mL | MIC Ampicillin (E. coli JT39 [5]; synergist concentration 0): > 2000 µg/mL | MIC Ampicillin (Klebsiella aerogenes E70; synergist concentration 0): 500 µg/mL | MIC Ampicillin (Proteus mirabilis C889; synergist concentration 0): > 2000 µg/mL | MIC Ampicillin (Staph. aureus Russell [6]; synergist concentration 0): 500 µg/mL

CC1(C)S[C@@H]2[C@H](NC(=O)[C@H](N)c3ccc(O)cc3)C(=O)N2[C@H]1C(=O)O [Amoxycillin, amoxycillin]
CD50 (E. coli E96 (RTEM)): 1000 mg/kg

COC(=O)C1CC=C2OC3CC(=O)N3C2C1 (single isomer, unassigned) [Example 1 (Isomer II)]
M.I.C. (Staph. aureus Russell [7]): 125 µg/mL | M.I.C. (Kleb. aerogenes E70 [8]): > 500 µg/mL | M.I.C. (P. mirabilis C889 [9]): > 500 µg/mL | deaths after 10 days (mice): no deaths were observed at dosages up to 750 mg/kg

O=C(O)[C@H]1CC=C2O[C@@H]3CC(=O)N3[C@H]2C1 [Example 3, Sodium (1S, 5R)-Δ^7,8-3-oxo-6-oxa-2-azatricyclo-[5.4.0.0^2,5]undecene-10-carboxylate]
M.I.C. (Staph. aureus Russell [7]): 125 µg/mL | M.I.C. (Kleb. aerogenes E70 [8]): > 500 µg/mL | M.I.C. (P. mirabilis C889 [9]): > 500 µg/mL | M.I.C. (E. coli JT39 [10]): 250 µg/mL

O=C(OCc1ccccc1)C1CC=C2OC3CC(=O)N3C2C1 (single isomer, unassigned) [2 (Isomer II)]
M.I.C. (Staph. aureus Russell [7]): 62.5 µg/mL | M.I.C. (Kleb. aerogenes E70 [8]): > 500 µg/mL | M.I.C. (P. mirabilis C889 [9]): > 500 µg/mL | M.I.C. (E. coli JT39 [10]): > 500 µg/mL

O=C(O)C1CC=C2O[C@@H]3CC(=O)N3C2C1 (single isomer, unassigned) [Example 10]
MIC (E. coli JT39 [5]; Escherichia coli, synergist alone): 16 µg/mL | MIC Ampicillin (E. coli JT39 [5]; [11]): inhibition | MIC Ampicillin (Klebsiella aerogenes E70; [11]): inhibition | MIC (Klebsiella aerogenes E70; synergist alone): 31.2 µg/mL | MIC Ampicillin (Proteus mirabilis C889; [11]): inhibition | MIC (Proteus mirabilis C889; synergist alone): 31.2 µg/mL | MIC (Staph. aureus Russell [6]; Staphylococcus aureus, synergist alone): 125 µg/mL
